Earlier results as cited in patent publication US20260199330A1, “MEDICAL METHOD AND USE” (ViiV Healthcare UK (No.3) Limited, priority 2024, published 2026).

Key:
[1] = oral 60 mg once daily for 2 years, LAI116482 (LATTE)
[2] = supratherapeutic oral CAB 150 mg q12 h×3 doses, TQT study

C[C@H]1CO[C@@H]2Cn3cc(C(=O)NCc4ccc(F)cc4F)c(=O)c(O)c3C(=O)N12 [Cabotegravir, (3S, 11aR)-N-((2,4-difluorophenyl)methyl)-6-hydroxy-3-methyl-5,7-dioxo-2,3,5, 11,11a-hexahydro(1,3)oxazolo(3,2-a)pyrido(1,2-d)pyrazine-8-carboxamide]
median (steady state) Cmax, long-term safety threshold [1]: 13100 ng/mL | geometric mean Cmax, short-term safety threshold [2]: 22500 ng/mL
